Results from US7244586B2, “DNA molecules encoding ligand-gated ion channels from Drosophila melanogaster” (Merck & Co., Inc., priority 2000, dated 2007).

Test system: DmLGIC AC15
Details: AC15 clone expressed in Xenopus oocyte
Description: Full length cDNA clones corresponding to the selected RT-PCR sequences were used as template for synthesis of in vitro transcribed RNA (Ambion Inc.). The capped cRNA transcripts are synthesized using appropriate oligonucleotide primers and the mMESSAGE mMACHINE in vitro RNA transcription kit from Ambion. Xenopus laevis oocytes were prepared and injected using standard methods as described (Arena et al., 1991, Mol. Pharmacol. 40: 368–374; Arena et al, 1992, Mol. Brain Res. 15: 339–348). Adult female Xenopus laevis were anesthetized with 0.17% tricaine methanesulfonate and the ovaries were surgically removed and placed in a dish consisting of (mM): NaCl 82.5, KCl 2, MgCl2 1, CaCl2 1.8, HEPES 5, adjusted to pH 7.5 with NaOH (OR-2). Ovarian lobes were broken open, rinsed several times, and gently shaken in OR-2 containing 0.2% collagenase (Sigma, Type 1A) for 2–5 hours. When approximately 50% of the follicular layers were removed, Stage V and VI oocytes were selected and placed in media consisting of (mM): NaCl 86, KCl 2, MgCl2 1, CaCl2 1.8, HEPES 5, Na pyruvate 2.5, theophylline 0.5, gentamicin 0.1 adjusted to pH 7.5 with NaOH (ND-96) for 24–48 hours before injection. For most experiments, oocytes were injected with 10 ng of cRNA in 50 nl of RNase free water. Control oocytes were injected with 50 nl of water. […]

NCCc1c[nH]cn1 [histamine]
response of functional single channel protein to addition of histamine: responds to the addition of histamine
